System: coagulation cascade (intrinsic and common pathways of coagulation)
Assay: Partial thromboplastin time (PTT) test of coating agents
Type: biochemical
Details: for Extension of control PTT (in words): versus the respective solvent control, both concentrations tested
Procedure: A useful test in determining the hemocompatibility of a reagent is the partial thromboplastin time (PTT) test. The PTT is a test of the intrinsic (factors VIII, IX, XI, and XII) and common (fibrinogen, prothrombin, factors V and X) pathways of coagulation. A mixture of plasma and phospholipid platelet substitute (rabbit brain cephalin) is recalcified and the time required for the appearance of fibrin strands measured.
The PTT was tested to determine whether Compound I or Compound II have the ability to extend the control PTT. A test tube of rabbit brain cephalin (Sigma #RBC) in 0.85% NaCl and a test tube of 0.02 M CaCl2 was brought to 37° C. in a water bath. Dade Ci-trol coagulation control lyophilized plasma (Dade International, Inc., product no. 34224-10) was reconstituted in sterile deionized water. In 10×75 mm glass test tubes, 100 μl reconstituted plasma and 100 μl RBC were mixed and incubated at 37° C. in a water bath for 5 minutes. Next, 50 μl of sample (deionized water, a photocrosslinkable polyvinylpyrrolidone (available from SurModics, Inc., product no. PVO5), or Compound I or II) was added and mixed. While simultaneously starting a stop watch, 100 μl of 0.02 M CaCl2 was added to initiate the clotting cascade. After 40 seconds had passed, the test tubes were shaken lightly, observed for fibrin formation, and the number of seconds was recorded.
All samples were tested in duplicate. The appropriate control PTT, depending upon what solvent in which the reagent was dissolved, was subtracted from the average PTT for the reagent to give the time the control PTT was extended.

Which “Extension of 50% IPA control PTT” value (higher of the two final concentrations tested, 50% IPA control) does the source give for `O=C(c1ccccc1)c1ccc(COc2cc(S(=O)(=O)[O-])c(OCc3ccc(C(=O)c4ccccc4)cc3)cc2S(=O)(=O)[O-])cc1.[K+].[K+]` [Compound II, 2,5-bis(4-benzoylphenylmethyleneoxy) benzene-1,4-disulfonic acid dipotassium salt] here?
Its value is 1 h.

And the “Extension of control PTT (in words)” value?
Its value is “considerably extend”.

With `O=C(c1ccccc1)c1ccc(COc2cc(S(=O)(=O)[O-])cc(S(=O)(=O)[O-])c2OCc2ccc(C(=O)c3ccccc3)cc2)cc1.[K+].[K+]` [Compound I, 4,5-bis(4-benzoylphenylmethyleneoxy) benzene-1,3-disulfonic acid disodium salt] as the compound, how does the “Extension of control PTT (in words)” value read?
Its value is “considerably extend”.

— US7138541B2, “Surface coating agents” (SurModics, Inc., priority 1999, dated 2006)
